Patent publication US8193252B1, “Mesoprogestins (progesterone receptor modulators) for the treatment and prevention of benign hormone dependent gynecological disorders” (Bayer Pharma AG, priority 1999, dated 2012)

Key:
[1] = test system: pregnant guinea pigs; test: Abortifacient / labor inducing activity in pregnant guinea pigs; format: in vivo, guinea pig
Procedure: In the guinea pig model which allows a good prediction of the effects in humans with respect to the abortifacient activity (Elger W, Beier S., Chwalisz K, Fähnrich M, Hasan S H, Henderson D, Neef G, Rohde R (1986): Studies on the mechanism of action of progesterone antagonists. J Steroid Biochem 25: 835-845) the mesoprogestins J 867, J 912, J 956, J 1042 lead up to 100 mg/kg/day to a maximal abortion rate of 20%.
(§1) The guinea pig is considered as relevant model of human gestation and parturition (Elger W, Fähnrich M, Beier S, Quing S S, Chwalisz K (1987). Endometrial and myometrial effects of progesterone antagonists in pregnant guinea pigs. Am J Obstet Gynecol 157: 1065-1074; Elger W, Neef G, Beier S, Fähnrich M, Gründel M, Heermann J, Malmendier A, Laurent D, Puri C P, Singh M M, Hasan S H, Becker H (1992). Evaluation of antifertility activities of antigestagens in animal model. In: Puri C P and Van Look P F A (eds), Current Concepts in Fertility Regulation and Reproduction. Wiley Eastern Limited, New Delhi, pp. 303-328; Elger W, Faehnrich M, Beier S, Qing S S, Chwalisz K (1986). Mechanism of action of progesterone antagonists in pregnant guinea pigs. Contraception 6: 47-62; Elger W, Chwalisz K, Faehnrich M, Hasan S H, Laurent D, Beier S, Ottow E, Neef G, Garfield R E (1990). Studies on labor-conditioning and labor-inducing effects of antiprogesterones in animal model. In: Garfield R E (eds), Norwell, pp. 153-175.) The mechanism of abortion of antiprogestins in this species is the initiation of labor and finally the expulsion of the conceptus. Abortifacient effects in the rat during very early pregnancy reflect inhibitory effects on nidation rather than initiation of uterine contractions. Studies in the rat model lead to “overestimation” of the potential of antiprogestins to terminate pregnancy in humans. Conversely, in the guinea pig model, irrespective of the antiprogestin doses, there were high rates of ongoing pregnancies similar to the situation in humans (Elger et al., Current Concepts in Fertility Regulation and Reproduction cited above). Furthermore, in both humans and guinea pigs, there is a strong synergism between antiprogestins and prostaglandins with respect the induction of labor (see the articles cited above and Elger W, Beier S (1983). Prostaglandine and Antigestagene für den Schwangerschaftsabbruch (Prostaglandins and antigestagens for pregnancy termination). German Patent DE 3337450 12; Van Look P, Bygdeman M (1989). Antiprogestational steroids: a new dimension in human fertility regulation. Oxford reviews of reproductive medicine 11: 2-60).
Pregnant guinea pigs were treated on days 43 and 44 of pregnancy and observed until day 50 of gestation. For the effects of various treatments see table 1 and FIG. 2. It is typical for this model that expulsions occur with a delay of several days after treatment. It can be seen that Mesoprogestins have a much reduced abortifacient activity compared to RU486. […] The differences with respect to abortifacient activity seem qualitative ones. It is not possible to overcome the low abortifacient activity of a Mesoprogestin by the use of a higher dose.
FIG. 2 is graphs showing data on the assessment on cumulative rate of abortion until day 50 in guinea pigs treated on days 43 and 44 of pregnancy.

[2] = test system: pregnant rats; test: Abortifacient activity in pregnant rats; format: in vivo, rat; details: s.c.; treatment days 5-7 of pregnancy, autopsy day 9; * SAS, probit procedure
Description: as §1

[3] = biological target: T1, progesterone receptor (PR) (Oryctolagus cuniculus, UniProt P06186); test: McPhail test, PR antagonistic (antiprogestagenic) activity in estradiol-primed juvenile rabbits in the presence of progesterone; format: in vivo; details: 4 days s.c., in the presence of progesterone 1 mg/rabbit s.c.
T1 construct: effects of PR-modulators in the uterus of estrogen primed immature rabbits (McPhail test); from tissue; host or cells: uterus (endometrium) of estradiol-primed juvenile rabbits, in vivo
T1 sequence (P06186 1-930): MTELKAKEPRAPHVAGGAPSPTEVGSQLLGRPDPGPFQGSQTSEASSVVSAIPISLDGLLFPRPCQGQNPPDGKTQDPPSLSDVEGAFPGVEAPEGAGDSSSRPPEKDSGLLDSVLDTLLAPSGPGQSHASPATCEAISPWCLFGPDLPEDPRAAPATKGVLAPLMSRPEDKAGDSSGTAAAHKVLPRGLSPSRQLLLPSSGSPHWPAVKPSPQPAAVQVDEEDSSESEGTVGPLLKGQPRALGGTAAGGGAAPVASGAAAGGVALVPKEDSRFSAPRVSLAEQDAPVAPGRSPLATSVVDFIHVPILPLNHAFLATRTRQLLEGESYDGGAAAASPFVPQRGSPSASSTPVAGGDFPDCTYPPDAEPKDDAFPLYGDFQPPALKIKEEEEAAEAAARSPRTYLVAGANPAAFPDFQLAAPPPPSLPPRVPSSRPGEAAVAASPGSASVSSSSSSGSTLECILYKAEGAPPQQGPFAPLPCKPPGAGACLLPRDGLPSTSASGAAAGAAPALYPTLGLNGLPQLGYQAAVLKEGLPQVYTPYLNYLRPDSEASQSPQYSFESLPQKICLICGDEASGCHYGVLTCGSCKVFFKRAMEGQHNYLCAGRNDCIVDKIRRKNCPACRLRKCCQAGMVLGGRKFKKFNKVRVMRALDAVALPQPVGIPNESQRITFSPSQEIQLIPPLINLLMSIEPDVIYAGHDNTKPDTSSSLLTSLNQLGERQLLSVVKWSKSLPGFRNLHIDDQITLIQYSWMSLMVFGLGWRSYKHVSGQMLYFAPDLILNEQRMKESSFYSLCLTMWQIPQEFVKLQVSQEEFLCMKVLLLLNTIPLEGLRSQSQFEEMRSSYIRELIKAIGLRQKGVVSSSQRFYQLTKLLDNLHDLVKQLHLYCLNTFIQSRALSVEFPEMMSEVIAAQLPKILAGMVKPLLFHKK
Procedure: The capacity of mesoprogestins to antagonize progesterone function is also tested in the McPhail test using a progesterone dose which induces a McPhail score ranging between 3 and 4.
The PR antagonistic and agonistic properties of mesoprogestins were assessed in estrogen-primed rabbits in the McPhail test according to Selye (Textbook of Endocrinology, 1947, pp. 345-346).

[4] = biological target: T2, GR (Homo sapiens, UniProt P04150); test: Relative binding activity (RBA) at GR, dexamethasone = 100%; details: by Kaufmann
T2 sequence (P04150 1-777): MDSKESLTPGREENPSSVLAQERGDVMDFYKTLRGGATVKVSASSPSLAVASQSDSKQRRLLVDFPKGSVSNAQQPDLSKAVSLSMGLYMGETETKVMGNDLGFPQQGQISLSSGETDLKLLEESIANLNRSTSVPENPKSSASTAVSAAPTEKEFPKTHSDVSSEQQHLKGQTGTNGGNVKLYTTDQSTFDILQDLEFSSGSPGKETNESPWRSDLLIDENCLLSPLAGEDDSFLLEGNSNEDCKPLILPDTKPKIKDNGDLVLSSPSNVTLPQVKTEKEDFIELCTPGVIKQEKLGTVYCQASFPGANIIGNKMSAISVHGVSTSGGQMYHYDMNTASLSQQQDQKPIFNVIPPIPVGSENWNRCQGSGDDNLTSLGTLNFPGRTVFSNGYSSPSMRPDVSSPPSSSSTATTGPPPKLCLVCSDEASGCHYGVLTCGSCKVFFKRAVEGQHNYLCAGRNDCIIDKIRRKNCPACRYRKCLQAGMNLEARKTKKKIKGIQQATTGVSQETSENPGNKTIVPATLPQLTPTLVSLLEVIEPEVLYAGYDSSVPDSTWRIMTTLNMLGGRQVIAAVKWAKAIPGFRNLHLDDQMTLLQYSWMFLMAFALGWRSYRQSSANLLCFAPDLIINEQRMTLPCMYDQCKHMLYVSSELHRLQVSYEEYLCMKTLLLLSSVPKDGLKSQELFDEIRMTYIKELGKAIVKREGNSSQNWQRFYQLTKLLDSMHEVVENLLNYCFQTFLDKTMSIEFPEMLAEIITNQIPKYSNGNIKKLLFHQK

## CC#C[C@]1(O)CC[C@H]2[C@@H]3CCC4=CC(=O)CCC4=C3[C@@H](c3ccc(N(C)C)cc3)C[C@@]21C [RU 486, mifepristone, reference compound]
[1]; s.c., treatment day 43-44 of pregnancy, autopsy day 50
  abortifacient activity ED50, guinea pig: 3.8 mg/animal/day
[1]; treated on days 43 and 44 of pregnancy, observed until day 50
  ranking of abortifacient activity: RU486>J956>J867, J912>J1042
[2]
  abortifacient activity ED50, rat: 0.98* mg/animal/day
[3]
  dose of first antiprogestagenic effect: 0.3-1 mg/rabbit
[4]
  RBA (%) GR: 685%
